Laboratory results published in article PMC3329467, “Stereoselective Regulations of P-Glycoprotein by Ginsenoside Rh2 Epimers and the Potential Mechanisms From the View of Pharmacokinetics” (PLoS ONE, 2012).
Where two headings read alike, the source gives them in different places.

Tests used:
[1] = test system: Ca^2+, K^+ and Na^+ channel; set-up: method as in PMID 15650337, PMID 15979567; conditions: dose- and voltage-dependent; cited from earlier work
P-gp [2] = molecular target: T1, P-gp (Homo sapiens, UniProt P08183); assay: P-gp mediated bidirectional transport of digoxin across Caco-2 cell monolayers; type: cell-based
T1 construct: host or cells: Caco-2 cell monolayers
Procedure: The Caco-2 cell transport model was established as described previously. Then, Hank's balanced salt solution (HBSS) containing 20(S)-Rh2, 20(R)-Rh2, 20(S)-Ppd, 20(R)-Ppd or 0.1% DMSO (control) was loaded into both apical and basolateral chambers. After incubation at 37°C for 1 h, 5 µM digoxin was added to either apical or basolateral side to evaluate the transport in absorptive and secretory direction respectively. After incubation for just another 2 h, samples were taken from the receiving chamber for analysis. Verapamil (10 µM) was used as a positive control. Digoxin was determined by LC-MS/MS. All experiments were conducted in triplicate.
For the transport assay, the apparent permeability coefficient (Papp) and efflux ratio (ER) were calculated as reported previously.

[3] = Oral pharmacokinetics of 20(S)-Rh2 and 20(R)-Rh2 in rats (stereoselective LC-MS); type: in vivo, rat; conditions: for Cmax / Tmax / MRT last: Sprague-Dawley, rat, po; for MRT last: read-out: MRT 0-t (converted); for Detection in plasma: after oral administration of 20(R)-Rh2, rats; for Inverted proportion (chiral inversion): after oral administration of a single configuration of Rh2, rats
Procedure: To investigate the differences of pharmacokinetic characteristics between 20(S)-Rh2 and 20(R)-Rh2, rats were divided into 2 groups with five rats for each group. One received a single dose of 20(S)-Rh2 intragastrically at 25 mg/kg suspended in 0.5% CMC-Na, while the other received 20(R)-Rh2 at the same dosage. Blood samples were collected at 0, 30, 60, 180, 240, 300, 360, 480, 660 and 840 min after oral administration into heparinized tubes. Plasma was obtained by centrifugation at 5000 g for 10 min and stored at −20°C before analysis.
The 20(S)-Rh2, 20(R)-Rh2 and the deglycosylation metabolites 20(S)-Ppd and 20(R)-Ppd were quantified simultaneously by reversed-phase LC-MS. An aliquot of 100 µl sample spiked with digitoxin as internal standard was extracted by 1 ml ethylacetate. The analysis was performed on Finnigan LC-MS system (Thermo Electron, San Jose, CA, USA) with a Lux Cellulose-1 Chiral Column (250×4.6 mm, 5 µm, Phenomenex, USA). The column and autosampler tray temperatures were 40 and 4°C, respectively. The mobile phase was consisted of methanol, acetonitrile and 0.1% formic acid with gradient elution (Table 5). Mass spectrometer was operated in positive ESI mode. MS parameters were as follows: spray voltage, 5.0 kV; sheath gas/auxiliary gas, nitrogen; sheath gas pressure, 35×10^5 Pa; auxiliary gas pressure, 20×10^5 Pa; ion transfer capillary temperature, 300°C. Quantification was performed using SIM mode with [M+Na]^+ peak: m/z 645.4 for Rh2; m/z 483.3 for Ppd; m/z 787.5 for digitoxin (internal standard).
(§1) The pharmacokinetic parameters of digoxin, 20(S)-Rh2 and 20(R)-Rh2 in rats were obtained by noncompartmental analysis using DAS (Drug and Statistics, version 2.1, Chinese Pharmacological Society). The area under the plasma concentration-time curve (AUC) was calculated using the trapezoidal method.

[4] = set-up: method as in PMID 19524010; conditions: 1–9 mg/kg i.g., rats; cited from earlier work
P-glycoprotein (P-gp) = conditions: in vitro and in vivo; cited from earlier work
osteoclastgenesis = conditions: cited from earlier work
osteoclasts = conditions: cited from earlier work
[5] = test system: androgen-dependent and –independent prostate cancer cells; set-up: method as in PMID 20554003; conditions: cited from earlier work
P-gp [6] = assay: Effects of Rh2 epimers on oral pharmacokinetics of P-gp substrate digoxin in rats; type: in vivo, rat
Procedure: The rats were divided into five groups with five each. One group of rats received i.g. single dose of the vehicle (0.5% CMC-Na) serving as the control. Two groups were i.g. administered 20(S)-Rh2 suspended in 0.5% CMC-Na at the doses of 5 mg/kg and 50 mg/kg respectively, while another two groups i.g. administration of 20(R)-Rh2 suspended in 0.5% CMC-Na at the doses of 5 mg/kg and 50 mg/kg respectively. Two hours later, P-gp substrate, digoxin (0.25 mg/kg) was given to the rats by i.g. administration. Blood samples were collected before the P-gp substrate dosing and at 0.08, 0.17, 0.25, 0.5, 1, 2, 3, 6, 8 h post-digoxin-dosing. Plasma was obtained by centrifugation at 5000 g for 10 min and stored at −20°C before analysis. Plasma concentrations of digoxin were determined as described previously.
as §1

human fecal microflora = test system: human fecal microflora; set-up: method as in PMID 11824558; conditions: cited from earlier work
[7] = 1 h preincubation, 5 µM digoxin 2 h, concentration series
[8] = plasma analyte after i.g. 20(S)-Rh2 25 mg/kg, rats
[9] = in vivo, 25 mg/kg, after oral administration of the same epimer, rats
[10] = in vivo, 25 mg/kg, plasma analyte after i.g. 20(R)-Rh2 25 mg/kg, rats
[11] = in vivo, 25 mg/kg, plasma analyte after i.g. 20(S)-Rh2 25 mg/kg, rats
[12] = plasma analyte after i.g. 20(R)-Rh2 25 mg/kg, rats

T1 sequence (P08183 whole entry): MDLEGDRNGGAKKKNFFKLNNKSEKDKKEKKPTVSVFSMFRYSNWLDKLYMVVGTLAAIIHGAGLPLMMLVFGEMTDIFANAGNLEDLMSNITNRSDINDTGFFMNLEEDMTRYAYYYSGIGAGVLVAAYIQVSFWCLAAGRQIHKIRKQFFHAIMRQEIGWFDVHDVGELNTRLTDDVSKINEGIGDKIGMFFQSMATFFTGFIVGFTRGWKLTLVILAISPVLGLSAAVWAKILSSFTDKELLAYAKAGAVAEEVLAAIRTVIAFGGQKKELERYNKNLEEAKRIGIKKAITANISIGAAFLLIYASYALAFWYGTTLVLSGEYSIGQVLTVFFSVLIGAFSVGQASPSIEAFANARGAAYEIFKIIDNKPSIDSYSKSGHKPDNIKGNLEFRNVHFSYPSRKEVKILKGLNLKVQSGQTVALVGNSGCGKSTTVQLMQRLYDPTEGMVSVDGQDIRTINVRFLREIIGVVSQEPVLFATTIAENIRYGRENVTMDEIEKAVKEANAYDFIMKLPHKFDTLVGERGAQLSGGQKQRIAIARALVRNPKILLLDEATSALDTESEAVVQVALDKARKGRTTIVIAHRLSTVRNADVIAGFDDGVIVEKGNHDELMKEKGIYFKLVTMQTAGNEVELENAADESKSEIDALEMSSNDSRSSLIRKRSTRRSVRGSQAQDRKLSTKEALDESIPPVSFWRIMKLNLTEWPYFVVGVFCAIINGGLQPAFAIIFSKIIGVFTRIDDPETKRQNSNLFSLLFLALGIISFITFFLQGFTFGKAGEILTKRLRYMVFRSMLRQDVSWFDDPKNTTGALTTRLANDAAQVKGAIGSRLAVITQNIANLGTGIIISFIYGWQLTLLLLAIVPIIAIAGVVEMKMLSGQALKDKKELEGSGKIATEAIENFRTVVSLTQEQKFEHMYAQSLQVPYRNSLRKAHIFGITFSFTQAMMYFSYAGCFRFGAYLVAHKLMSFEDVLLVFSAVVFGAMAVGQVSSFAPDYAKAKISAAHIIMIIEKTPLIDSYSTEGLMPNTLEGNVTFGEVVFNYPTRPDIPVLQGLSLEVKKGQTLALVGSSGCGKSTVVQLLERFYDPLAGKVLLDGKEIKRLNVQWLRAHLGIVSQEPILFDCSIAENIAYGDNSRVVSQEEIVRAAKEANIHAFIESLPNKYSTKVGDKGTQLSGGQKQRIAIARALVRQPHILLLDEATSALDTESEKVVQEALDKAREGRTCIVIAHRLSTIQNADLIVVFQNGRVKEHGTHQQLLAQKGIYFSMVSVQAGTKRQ

In the case of `CC(C)=CCC[C@](C)(O)[C@H]1CC[C@]2(C)[C@@H]1[C@H](O)C[C@@H]1[C@@]3(C)CC[C@H](O[C@@H]4O[C@H](CO)[C@@H](O)[C@H](O)[C@H]4O[C@@H]4O[C@H](CO)[C@@H](O)[C@H](O)[C@H]4O)C(C)(C)[C@@H]3CC[C@]12C` [20(R)-ginsenoside Rg3], the “Inhibition of Ca^2+, K^+ and Na^+ channel currents” value [1] is listed as “not”.

With `CC(C)=CCC[C@](C)(O)[C@H]1CC[C@]2(C)[C@@H]1[C@H](O)C[C@@H]1[C@@]3(C)CC[C@H](O)C(C)(C)[C@@H]3CC[C@]12C` [20(S)-Ppd, 20(S)-protopanaxadiol] the “Effect on efflux ratio of digoxin across Caco-2 cell monolayers” value (shortened to “Effect on efflux ratio”) (P-gp [2]; [7]) was “lowered the efflux ratio of digoxin across Caco-2 cell monolayers concentration-dependently”, the Cmax [3, 8] was 85 ± 7 ng/mL and the Tmax [3, 8] was 8.67 h. The MRT last [3, 8] was 9.05 h and the “AUC 0-t” value [3, 8] was 35129 ± 2261 µg·min/L.

In the case of `CC(C)=CCC[C@](C)(O)[C@H]1CC[C@]2(C)[C@@H]1[C@H](O)C[C@@H]1[C@@]3(C)CC[C@H](O[C@@H]4O[C@H](CO)[C@@H](O)[C@H](O)[C@H]4O)C(C)(C)[C@@H]3CC[C@]12C` [Rh2, ginsenoside Rh2], the Absolute bioavailability [4] is given as 4.0–6.4%.

With `CC(C)=CCC[C@@](C)(O)[C@H]1CC[C@]2(C)[C@@H]1[C@H](O)C[C@@H]1[C@@]3(C)CC[C@H](O)C(C)(C)[C@@H]3CC[C@]12C` [20(R)-Ppd, 20(R)-protopanaxadiol] the “Effect on efflux ratio” value (P-gp [2]; [7]) was “lowered the efflux ratio of digoxin across Caco-2 cell monolayers concentration-dependently” and the Detection in plasma [3] was “not detected”.

With `CC(C)=CCC[C@@](C)(O)[C@H]1CC[C@]2(C)[C@@H]1[C@H](O)C[C@@H]1[C@@]3(C)CC[C@H](O)C(C)(C)[C@@H]3CC[C@]12C` [Ppd, protopanaxadiol] the Detection in plasma [3] was “no Ppd was found”.

In the case of `CC(C)=CCC[C@](C)(O)[C@H]1CC[C@]2(C)[C@@H]1[C@H](O)C[C@@H]1[C@@]3(C)CC[C@H](O[C@@H]4O[C@H](CO)[C@@H](O)[C@H](O)[C@H]4O)C(C)(C)[C@@H]3CC[C@]12C` [20(S)-Rh2, 20(S)-ginsenoside Rh2], the P-gp inhibition (P-glycoprotein (P-gp)) is listed as “effective P-gp inhibitor both in vitro and in vivo”, the “Effect on efflux ratio” value (P-gp [2]; [7]) is listed as “decreased the efflux ratio of digoxin crossing Caco-2 cell monolayers in a concentration-dependent manner” and the Osteoclastgenesis inhibition (osteoclastgenesis) is listed as “weak osteoclastgenesis inhibition”. The Cytotoxicity in osteoclasts (osteoclasts) was “strong cytotoxicity”, the Cmax [3, 9] was about 1000 nM and the Cmax [3, 10] was 5 ± 1 ng/mL. The Tmax [3, 10] was 2.33 h, the MRT last [3, 10] was 2.2 h and the Cmax [3, 11] was 572 ± 162 ng/mL. The Tmax [3, 11] was 3.45 h, the MRT last [3, 11] was 3.35 h and the “Inverted proportion (chiral inversion)” value [3] was about 10%. For the same compound, the “AUC 0-t” value [3, 12] was 1193 ± 230 µg·min/L, the “AUC 0-t” value [3, 8] was 149888 ± 40725 µg·min/L and the “AUC higher than that of 20(R)-Rh2” value ([3]; same oral dosage, rats) was 10 fold. The “Inhibition of proliferation of prostate cancer cells” value [5] was “inhibited the proliferation”.

In the case of `C[C@H]1O[C@@H](O[C@H]2[C@@H](O)C[C@H](O[C@H]3[C@@H](O)C[C@H](O[C@H]4CC[C@@]5(C)[C@H](CC[C@@H]6[C@@H]5C[C@@H](O)[C@]5(C)[C@@H](C7=CC(=O)OC7)CC[C@]65O)C4)O[C@@H]3C)O[C@@H]2C)C[C@H](O)[C@@H]1O` [Digoxin], the Cmax (P-gp [6]; Sprague-Dawley (SD), rat, plasma, po, digoxin 0.25 mg/kg i.g., control (no Rh2)) is reported as 9.9 ± 2.6 nM, the AUC 0-t (P-gp [6]; Sprague-Dawley (SD), rat, plasma, po, digoxin 0.25 mg/kg i.g., control (no Rh2), read-out: AUC 0–12 of digoxin) is reported as 0.0154 ± 0.0029 µM·h and the MRT last (P-gp [6]; Sprague-Dawley (SD), rat, plasma, po, digoxin 0.25 mg/kg i.g., control (no Rh2), read-out: MRT0–12 of digoxin) is reported as 1.7 ± 0.6 h. For the same compound, the half-life (P-gp [6]; Sprague-Dawley (SD), rat, plasma, po, digoxin 0.25 mg/kg i.g., control (no Rh2), read-out: t1/2 of digoxin (converted)) was 72 ± 24 min.

In the case of `CC(C)=CCC[C@@](C)(O)[C@H]1CC[C@]2(C)[C@@H]1[C@H](O)C[C@@H]1[C@@]3(C)CC[C@H](O[C@@H]4O[C@H](CO)[C@@H](O)[C@H](O)[C@H]4O)C(C)(C)[C@@H]3CC[C@]12C` [20(R)-Rh2, 20(R)-ginsenoside Rh2], the “Effect on AUC and Cmax of digoxin” value (P-gp [6]; 5 mg/kg i.g. prior to i.g. digoxin) is reported as “significantly enhanced”, the “Effect on absorption of digoxin compared with control group” value (P-gp [6]; 50 mg/kg i.g. prior to i.g. digoxin) is reported as “not changed significantly” and the “Effect on efflux ratio” value (P-gp [2]; 1 µM, 5 µM digoxin) is reported as “significantly lowered the efflux ratio of digoxin”. The “Effect on efflux ratio” value (P-gp [2]; elevated concentrations, 5 µM digoxin) was “the efflux ratio of digoxin were restored”, the Osteoclastgenesis inhibition (osteoclastgenesis) was “selective osteoclastgenesis inhibitor” and the Cytotoxicity in osteoclasts (osteoclasts) was “without any cytotoxicity”. The Cmax [3, 9] was at most 50 nM, the Cmax [3, 10] was 29 ± 5 ng/mL and the Tmax [3, 10] was 4.75 h. The MRT last [3, 10] was 4.65 h, the Cmax [3, 11] was 17 ± 2 ng/mL and the Tmax [3, 11] was 2.1 h. The MRT last [3, 11] was 2.38 h, the “Inverted proportion (chiral inversion)” value [3] was about 10% and the “AUC 0-t” value [3, 12] was 13204 ± 2322 µg·min/L. For the same compound, the “AUC 0-t” value [3, 8] was 8648 ± 1871 µg·min/L.

In the case of `CC(C)=CCC[C@](C)(O)[C@H]1CC[C@]2(C)[C@@H]1[C@H](O)C[C@@H]1[C@@]3(C)CC[C@H](O[C@@H]4O[C@H](CO)[C@@H](O)[C@H](O)[C@H]4O[C@@H]4O[C@H](CO)[C@@H](O)[C@H](O)[C@H]4O)C(C)(C)[C@@H]3CC[C@]12C` [20(S)-ginsenoside Rg3], the “Inhibition of Ca^2+, K^+ and Na^+ channel currents” value [1] is listed as “inhibited” and the “Amount transformed to 20(S)-ginsenoside Rh2, higher than 20(R)-Rg3 to 20(R)-Rh2” value (human fecal microflora) is listed as 19 fold.
